Measured values: patent US20260374751A1, “AMIDE PRODRUGS AND USES THEREOF” (Autobahn Therapeutics, Inc., priority 2022, published 2026)
pEC50: −log10 of the molar value.

Experiments:
Assay type in all cases: biochemical
[1] = target: T1, recombinant human FAAH (rhFAAH) (Homo sapiens, UniProt O00519); assay: FAAH substrate evaluation: formation of acid metabolite by purified recombinant human FAAH (rhFAAH); conditions: role: substrate; 1 μM test compound, 0.5 ng/μL rhFAAH, 1.25% ethanol or 1 μM PF-3845 (FAAH inhibitor), 0.1% BSA, Tris-EDTA pH 8.0, room temperature, 0-60 minutes
T1 sequence (O00519 1-579): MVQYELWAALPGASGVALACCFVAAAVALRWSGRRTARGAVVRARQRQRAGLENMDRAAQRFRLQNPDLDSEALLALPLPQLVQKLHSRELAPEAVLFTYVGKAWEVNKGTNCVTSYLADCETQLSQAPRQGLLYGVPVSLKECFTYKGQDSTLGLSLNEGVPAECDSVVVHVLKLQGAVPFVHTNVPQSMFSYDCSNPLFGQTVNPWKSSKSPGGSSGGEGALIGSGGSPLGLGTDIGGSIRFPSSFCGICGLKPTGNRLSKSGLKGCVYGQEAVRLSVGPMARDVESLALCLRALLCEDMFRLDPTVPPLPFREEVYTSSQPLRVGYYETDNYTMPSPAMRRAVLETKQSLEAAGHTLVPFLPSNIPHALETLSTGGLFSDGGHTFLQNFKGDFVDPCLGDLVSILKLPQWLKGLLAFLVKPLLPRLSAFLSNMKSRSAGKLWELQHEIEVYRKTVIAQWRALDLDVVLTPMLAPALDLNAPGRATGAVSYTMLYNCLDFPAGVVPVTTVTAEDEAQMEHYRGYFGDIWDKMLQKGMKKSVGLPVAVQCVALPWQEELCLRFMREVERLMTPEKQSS
Experimental: Purified recombinant human FAAH (rhFAAH) was purchased from Cayman Chemical (Ann Arbor, MI, USA). The total volume for each incubation was 400 μL containing a final 0.5 ng/μL rhFAAH, 1 μM test compound, 1.25% ethanol or 1 μM PF-3845 (FAAH inhibitor), and 0.1% bovine serum albumin in Tris-EDTA buffer at pH 8.0). The incubation was conducted at room temperature. At 0, 5, 15, 30 and 60 minutes, an aliquot of 30 μL reaction mixtures was removed and mixed with 300 μL acetonitrile containing 5 ng/mL terfenadine and 10 ng/mL tolbutamide as internal standards to quench the reaction. The resulting mixture was centrifuged at 4000 rpm, 4 °C for 15 minutes, and 100 μL supernatant was ready for LC-MS/MS analysis to measure the formation of acid metabolite.
Acquity Ultra Performance LC system from Waters was used for sample analysis. The chromatography was performed on a reverse phase Kinetex 2.6 μm C18 column, 2.1×30 mm, 100 Å. The mobile phase A comprised of 0.1% formic acid in water and mobile phase B comprised of 0.1% formic acid in acetonitrile with a 1.5 min run time at the flow rate of 0.9 mL/min for the acid metabolite of test compounds. The mass spectrometer (API-5500 and API Q Trap 4000 Applied Biosystems/MDS SCIEX Instruments, Framingham, MA, USA) was operated under ESI positive or negative ion MRM mode.
The formation of acid metabolite was monitored and quantified using one calibration point of 1 μM. The observed rate constant (ke) for the acid metabolite formation was calculated by plotting the metabolite concentration versus time of incubation with the slope being ke and is shown in Table 1.

[2] = target: S1P5 (Homo sapiens, UniProt Q9H228); assay: S1P5 receptor agonism (EC50 statement)
S1P5, sequence (Q9H228 whole entry, species assumed): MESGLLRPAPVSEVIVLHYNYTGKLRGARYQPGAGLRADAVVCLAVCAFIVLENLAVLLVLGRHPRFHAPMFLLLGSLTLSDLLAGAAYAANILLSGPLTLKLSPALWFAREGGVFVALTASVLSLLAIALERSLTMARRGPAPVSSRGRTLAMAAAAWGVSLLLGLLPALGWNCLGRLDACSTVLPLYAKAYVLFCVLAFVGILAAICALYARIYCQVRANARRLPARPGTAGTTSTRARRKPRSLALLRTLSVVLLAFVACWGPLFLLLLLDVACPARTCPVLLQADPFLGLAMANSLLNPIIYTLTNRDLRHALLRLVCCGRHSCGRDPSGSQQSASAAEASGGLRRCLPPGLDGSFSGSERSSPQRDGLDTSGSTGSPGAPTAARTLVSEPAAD

[3] = target: S1P1 (Homo sapiens, UniProt P21453); assay: S1P1 receptor agonism (EC50 statement)
S1P1, sequence (P21453 whole entry, species assumed): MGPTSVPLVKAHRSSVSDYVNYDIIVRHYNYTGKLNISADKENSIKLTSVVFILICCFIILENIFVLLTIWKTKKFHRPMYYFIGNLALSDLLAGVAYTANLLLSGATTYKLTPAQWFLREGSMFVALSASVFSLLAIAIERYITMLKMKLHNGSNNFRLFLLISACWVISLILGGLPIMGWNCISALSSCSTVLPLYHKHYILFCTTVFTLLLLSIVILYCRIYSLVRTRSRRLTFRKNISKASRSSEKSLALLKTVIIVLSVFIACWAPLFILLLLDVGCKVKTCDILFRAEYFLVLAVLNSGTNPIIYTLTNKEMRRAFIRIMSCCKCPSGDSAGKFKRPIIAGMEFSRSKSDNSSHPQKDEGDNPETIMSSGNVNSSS

| SMILES | ke (observed rate constant for the acid metabolite formation) [1] | further results |
| --- | --- | --- |
| CCCc1ccc(COc2ccc3c(c2)CCC(CN2CC(C(=O)NCCCF)C2)=C3C)c(OC)c1 [Compound 5, N-(3-fluoropropyl)-1-((6-((2-methoxy-4-propylbenzyl)oxy)-1-methyl-3,4-dihydronaphthalen-2-yl)methyl)azetidine-3-carboxamide] | A (ke is more than or equal to 1.0) | – |
| CCCc1ccc(COc2ccc3c(c2)CCC(CN2CC(C(=O)NCC(F)(F)F)C2)=C3C)c(OC)c1 [Compound 6, 1-((6-((2-methoxy-4-propylbenzyl)oxy)-1-methyl-3,4-dihydronaphthalen-2-yl)methyl)-N-(2,2,2-trifluoroethyl)azetidine-3-carboxamide] | A (ke is more than or equal to 1.0) | – |
| CCCc1ccc(COc2ccc3c(c2)CCC(CN2CC(C(=O)N(C)C)C2)=C3C)c(OC)c1 [Compound 23, 1-((6-((2-methoxy-4-propylbenzyl)oxy)-1-methyl-3,4-dihydronaphthalen-2-yl)methyl)-N,N-dimethylazetidine-3-carboxamide] | B (ke is less than 1.0 and more than 0) | – |
| CCCc1ccc(COc2ccc3c(c2)CCC(CN2CC(C(=O)NC4CC4)C2)=C3C)c(OC)c1 [Compound 8, N-cyclopropyl-1-((6-((2-methoxy-4-propylbenzyl)oxy)-1-methyl-3,4-dihydronaphthalen-2-yl)methyl)azetidine-3-carboxamide] | A (ke is more than or equal to 1.0) | – |
| CCCc1ccc(COc2ccc3c(c2)CCC(CN2CC(C(=O)N(CC)CC)C2)=C3C)c(OC)c1 [Compound 16, N,N-diethyl-1-((6-((2-methoxy-4-propylbenzyl)oxy)-1-methyl-3,4-dihydronaphthalen-2-yl)methyl)azetidine-3-carboxamide] | C (ke is 0) | – |
| CCCCN(C)C(=O)C1CN(CC2=C(C)c3ccc(OCc4ccc(CCC)cc4OC)cc3CC2)C1 [Compound 14, N-butyl-1-((6-((2-methoxy-4-propylbenzyl)oxy)-1-methyl-3,4-dihydronaphthalen-2-yl)methyl)-N-methylazetidine-3-carboxamide] | C (ke is 0) | – |
| CCCc1ccc(COc2ccc3c(c2)CCC(CN2CC(C(=O)Nc4cccnn4)C2)=C3C)c(OC)c1 [Compound 4, 1-((6-((2-methoxy-4-propylbenzyl)oxy)-1-methyl-3,4-dihydronaphthalen-2-yl)methyl)-N-(pyridazin-3-yl)azetidine-3-carboxamide] | A (ke is more than or equal to 1.0) | – |
| CCCc1ccc(COc2ccc3c(c2)CCC(CN2CC(C(=O)NCCC(F)(F)F)C2)=C3C)c(OC)c1 [Compound 11, 1-((6-((2-methoxy-4-propylbenzyl)oxy)-1-methyl-3,4-dihydronaphthalen-2-yl)methyl)-N-(3,3,3-trifluoropropyl)azetidine-3-carboxamide] | A (ke is more than or equal to 1.0) | – |
| CCCCNC(=O)C1CN(CC2=C(C)c3ccc(OCc4ccc(CCC)cc4OC)cc3CC2)C1 [Compound 15, N-butyl-1-((6-((2-methoxy-4-propylbenzyl)oxy)-1-methyl-3,4-dihydronaphthalen-2-yl)methyl)azetidine-3-carboxamide] | A (ke is more than or equal to 1.0) | – |
| CCCc1ccc(COc2ccc3c(c2)CCC(CN2CC(C(=O)NCC4CC4)C2)=C3C)c(OC)c1 [Compound 7, N-(cyclopropylmethyl)-1-((6-((2-methoxy-4-propylbenzyl)oxy)-1-methyl-3,4-dihydronaphthalen-2-yl)methyl)azetidine-3-carboxamide] | A (ke is more than or equal to 1.0) | – |
| CCCc1ccc(COc2ccc3c(c2)CCC(CN2CC(C(=O)Nc4ccncc4)C2)=C3C)c(OC)c1 [Compound 13, 1-((6-((2-methoxy-4-propylbenzyl)oxy)-1-methyl-3,4-dihydronaphthalen-2-yl)methyl)-N-(pyridin-4-yl)azetidine-3-carboxamide] | A (ke is more than or equal to 1.0) | – |
| CCCc1ccc(COc2ccc3c(c2)CCC(CN2CC(C(=O)Nc4cccnc4)C2)=C3C)c(OC)c1 [Compound 3, 1-((6-((2-methoxy-4-propylbenzyl)oxy)-1-methyl-3,4-dihydronaphthalen-2-yl)methyl)-N-(pyridin-3-yl)azetidine-3-carboxamide] | B (ke is less than 1.0 and more than 0) | – |
| CCCc1ccc(COc2ccc3c(c2)CCC(CN2CC(C(=O)N4CCC4)C2)=C3C)c(OC)c1 [Compound 12, azetidin-1-yl(1-((6-((2-methoxy-4-propylbenzyl)oxy)-1-methyl-3,4-dihydronaphthalen-2-yl)methyl)azetidin-3-yl)methanone] | A (ke is more than or equal to 1.0) | – |
| CCCc1ccc(COc2ccc3c(c2)CCC(CN2CC(C(=O)N(C)OC)C2)=C3C)c(OC)c1 [Compound 21, N-methoxy-1-((6-((2-methoxy-4-propylbenzyl)oxy)-1-methyl-3,4-dihydronaphthalen-2-yl)methyl)-N-methylazetidine-3-carboxamide] | A (ke is more than or equal to 1.0) | – |
| CCCc1ccc(COc2ccc3c(c2)CCC(CN2CC(C(=O)O)C2)=C3C)c(OC)c1 [Compound 1, ceralifimod] | – | pEC50 [2]: 9.00; pEC50 [3]: 7.93 |

Now from value to compound, other results behind:

| ke (observed rate constant for the acid metabolite formation) [1] | SMILES | further results |
| --- | --- | --- |
| A (ke is more than or equal to 1.0) | CCCc1ccc(COc2ccc3c(c2)CCC(CN2CC(C(=O)NCC)C2)=C3C)c(OC)c1 [Compound 19, N-ethyl-1-((6-((2-methoxy-4-propylbenzyl)oxy)-1-methyl-3,4-dihydronaphthalen-2-yl)methyl)azetidine-3-carboxamide] | – |
| C (ke is 0) | CCCc1ccc(COc2ccc3c(c2)CCC(CN2CC(C(=O)N(C)CC)C2)=C3C)c(OC)c1 [Compound 17, N-ethyl-1-((6-((2-methoxy-4-propylbenzyl)oxy)-1-methyl-3,4-dihydronaphthalen-2-yl)methyl)-N-methylazetidine-3-carboxamide] | – |
| B (ke is less than 1.0 and more than 0) | CCCc1ccc(COc2ccc3c(c2)CCC(CN2CC(C(=O)N[C@@H](C)CC)C2)=C3C)c(OC)c1 [Compound 10, (S)—N-(sec-butyl)-1-((6-((2-methoxy-4-propylbenzyl)oxy)-1-methyl-3,4-dihydronaphthalen-2-yl)methyl)azetidine-3-carboxamide] | – |
| A (ke is more than or equal to 1.0) | CCCNC(=O)C1CN(CC2=C(C)c3ccc(OCc4ccc(CCC)cc4OC)cc3CC2)C1 [Compound 18, 1-((6-((2-methoxy-4-propylbenzyl)oxy)-1-methyl-3,4-dihydronaphthalen-2-yl)methyl)-N-propylazetidine-3-carboxamide] | – |
| A (ke is more than or equal to 1.0) | CCCc1ccc(COc2ccc3c(c2)CCC(CN2CC(C(=O)NOC)C2)=C3C)c(OC)c1 [Compound 20, N-methoxy-1-((6-((2-methoxy-4-propylbenzyl)oxy)-1-methyl-3,4-dihydronaphthalen-2-yl)methyl)azetidine-3-carboxamide] | – |
| A (ke is more than or equal to 1.0) | CCCc1ccc(COc2ccc3c(c2)CCC(CN2CC(C(=O)N[C@H](C)CC)C2)=C3C)c(OC)c1 [Compound 9, (R)—N-(sec-butyl)-1-((6-((2-methoxy-4-propylbenzyl)oxy)-1-methyl-3,4-dihydronaphthalen-2-yl)methyl)azetidine-3-carboxamide] | – |
| B (ke is less than 1.0 and more than 0) | CCCc1ccc(COc2ccc3c(c2)CCC(CN2CC(C(=O)NC)C2)=C3C)c(OC)c1 [Compound 2, 1-((6-((2-methoxy-4-propylbenzyl)oxy)-1-methyl-3,4-dihydronaphthalen-2-yl)methyl)-N-methylazetidine-3-carboxamide] | – |
